In patent US9239334B2, “Fatty acid C16: 1N7-palmitoleate a lipokine and biomarker for metabolic status” (PRESIDENT AND FELLOWS OF HARVARD COLLEGE, priority 2008, dated 2016):
Entries after “also recorded” stand apart in the source; their conditions may differ.

What was measured:
SCD-1 protein = assay: Immunoblotting of Flag-tagged SCD-1 in hepatocytes; assay type: cell-based; settings: CMV promoter construct
Excerpt: FIG. 3F presents data from the immunoblotting of Flag-tagged SCD-1 in hepatocytes treated with control, palmitate and palmitoleate. Anti-tubulin blot was used as loading control. The observations reported herein also raised the possibility that C16:1n7-palmitoleate might be the lipid species responsible, at least in part, for the metabolic activities linked to adipose tissue FABPs. […] Because palmitoleate is nearly ten-times more abundant in the plasma of FABP^−/− mice than is AA (FIG. 2C), it is most likely accounts for the suppression of SCD-1 under physiologically relevant conditions. The effects of palmitoleate on the levels of SCD-1 protein, which is known to have a very short half-life (Heinemann & Ozols, 68 Prostaglandins Leukot. Essent. Fatty Acids 123-33 (2003)), were also examined. […] Maeda et al., 2005.

SCD-1 promoter = assay: SCD-1 promoter-driven luciferase reporter in FAO hepatoma cells; assay type: cell-based, murine
Procedure: This possibility was tested using several highly sensitive assays to probe the functional profile and activities of plasma lipids. SCD-1 was chosen as a target because it was determined previously that the suppression of hepatic SCD-1 activity is a major alteration in FABP-deficient mice under diet-induced or genetic obesity. Cao et al., 2006; Maeda et al., 2005. Hepatic SCD-1 expression is regulated by a variety of hormones and nutritional factors such as insulin, glucose, and polyunsaturated fatty acids (PUFAs). Ntambi & Miyazaki, 43 Prog. Lipid Res. 91-104 (2004). […] Chu et al., 26 Mol. Cell Biol. 6786-98 (2006); Ntambi, 40 J. Lipid Res. 1549-58 (1999). The 1.5 kb murine SCD-1 promoter was placed in front of a luciferase reporter and inserted into an adenovirus construct. FAO rat hepatoma cells infected with this adenovirus verified the responsiveness of this reporter to PUFA, consistent with previous observations (FIG. 15). Because this assay system was adapted to a microplate format, very small amounts of lipids were required for experimentation. This system allowed direct testing for the effects of lipids extracted from plasma of WT and FABP-deficient animals.
Lipids were extracted from whole plasma and applied to liver cells expressing the SCD-1 promoter reporter gene. […] To control for any difference in the amount of lipids extracted from plasma and to mimic the in vivo regulation of SCD-1 expression, mixtures of FFAs were generated with the same molar ratio detected in WT or FABP-deficient plasma lipids using the major fatty acids listed in FIG. 2C. […]
(§1) Samples of 200 μl serum were collected using heparin-coated glass tubes and spun at 13,000 g in a microcentrifuge to separate the plasma. […] Tissue protein lysates was separated with SDS-PAGE gels and phosphorylated or total proteins were detected with the following antibodies: phospho AKT Serine 473, AKT, insulin receptor, phospho-tyrosine (Santa Cruz Biotech.); IRS-1 and IRS-2 (Upstate); phospho-GSK and GSK (Cell Signaling Tech.); phospho-insulin receptor from (Calbiocbem). […]

[1] = test system: insulin receptor, IRS-1, IRS-2 and AKT phosphorylation in liver; assay: Insulin signaling in liver of lipid-infused mice (immunoblotting); assay type: in vivo; settings: fatty acid:palmitoleate infusion 3.3 μl/min
Excerpt: FIGS. 7A-7G show data on the regulation of insulin signaling and glucose metabolism by palmitoleate. FIG. 7A is the basal and insulin-stimulated phosphorylation of insulin receptor (IR), insulin receptor substrate-1 (IRS-1) and -2 (IRS-2) and AKT in liver of mice infused with vehicle (Veh), TG:palmitoleate (C16:1n7) or TG:palmitate (C16). Representative blots are shown and quantifications on the right are averaged results of three mice in each treatment group. […] Representative blots are shown and quantifications on the right are averaged results of three mice in each treatment group.
The left panel presents the insulin-stimulated phosphorylation of insulin receptor and AKT in liver of mice infused with vehicle or palmitoleate. […] Mice were infused with vehicle or palmitoleate at 3.3 μl/min for six hrs, and insulin (1 U/Kg) was injected through the infusing tubing. Three minutes after insulin injection, tissues were collected and immunoblotting analyses were performed.
The present invention also provides for the regulation of insulin action by increased circulating palmitoleate. To study whether palmitoleate regulates systemic metabolic responses, lipid infusions were administered in conscious mice. Lipid infusion has been used widely to investigate the relationship between plasma FFAs and insulin resistance, but almost all studies using this protocol utilized preparations of natural lipid products containing a variety of fatty acids. Kim et al., 114 J. Clin. Invest. 823-27 (2004); Kim et al., 277 J. Biol. Chem. 32915-22 (2002); Yu et al., 277 J. Biol. Chem. 50230-36 (2002). […]
as §1

## CCCCCC/C=C\CCCCCCCC(=O)O [palmitoleate, C16:1n7-palmitoleate]
SCD-1 protein
  Flag-tagged SCD-1 protein level: significantly increased SCD-1 protein degradation
SCD-1 promoter; cells treated with a mixture of palmitate and palmitoleate
  effect of palmitate on SCD-1 promoter: antagonized
SCD-1 promoter; hepatocytes (FAO) treated with a single fatty acid, 300 μM
  SCD-1 promoter-driven reporter activity: negatively regulated; also recorded: comparable to arachidonic acid; also recorded: suppressed
[1]
  liver insulin signaling (insulin receptor and AKT activation): enhanced
